Experimental data taken from US20050008640A1, “Method of treating transplant rejection” (priority 2003, published 2005).

How the values were obtained:
anti-CD3 induced IL-2 = assay: Anti-CD3 induced IL-2 production; type: in vivo, BALB/c mice; conditions: 12.5 mg/kg p.o.
Description: Six to 8 week old BALB/c mice were dosed p.o. with EXAMPLE 3 30 minutes prior to i.v. injection of 75 ng hamster anti-mouse CD3 antibody, 145-2C11 (PharMingen, San Diego, Calif.). Two hours after anti-CD3 injection mice were bled via cardiac puncture, serum was collected and assayed for IL-2 by ELISA (Endogen, Woburn, Mass.).

[1] = tested on: BALB/c skin allograft in C57BL/6 recipient mice; assay: Skin transplantation; type: in vivo, C57BL/6 mice; conditions: q.d. day -1 to day 9
Source text: Skin transplantation was done using a modification of a previously described method Chang, A. E. & Sugarbaker, P. H; Transplantation, 29: 381, 1980 and Sugarbaker, P. H. & Chang, A; J. Immunol. Methods, 31: 167, 1979. Tail skin was collected from BALB/c donors, scraped free of fat and fascia and maintained in PBS on ice until transplanted. Partial thickness wounds were created on the backs of C57BL/6 recipient mice and the graft was cut to exactly fit the wound bed. Grafts were adhered to the wound bed with a small amount of wound glue (Henry Schein, Melville, N.Y.), covered with petroleum jelly embedded gauze (Sherwood Medical, St. Louis, Mo.) and bandaged for 5 days. On day 6, bandages were removed and grafts were scored visually for necrosis from day 6 to day 10.

IgG1 alloantibody = assay: Alloantibody measurement, IgG1; type: in vivo, C57BL/6 mice; conditions: serum 21 days after cardiac allograft; dose not stated
Description: (§1) All sera were heat inactivated at 56° C. for 30 minutes and stored at −20° C. prior to analysis. BALB/c T cells were purified from spleen using MACS CD90 (Thy1.2) beads (Miltenyi Biotech, Auburn, Calif.). Briefly, 10^7 cells were resuspended in buffer containing 10 mg/ml of human IgG (Sigma, St. Louis, Mo.). […] The bead/cell mixture was then incubated for 15 minutes at 6-12° C., washed, and resuspended in 500 μl PharMingenStain Buffer (PharMingen , San Diego, Calif.) per 10^8 cells and run through an LS+ selection column. The isolated T cell suspension was adjusted to a concentration of 1×10^6 cells/ml. For flow cytometric analysis BALB/c T cells were incubated with recipient sera (1:50 for IgG2a analysis, 1:40 for IgG1 analysis). Following a 30 minute incubation at 4° C., the cells were washed and resuspended in either goat anti-mouse IgG1-phycoerythrin (PE) or anti-mouse IgG2a-PE antibody (Caltag, Burlingame, Calif.). Cells were analyzed using a Becton Dickinson FACScan (Mountain View, Calif.). Data are presented as mean and SEM of fluorescence intensity corrected for control (naive serum) fluorescence. Statistical analysis was performed using a two-tailed Student's t-test.

IgG2a alloantibody = assay: Alloantibody measurement, IgG2a; type: in vivo, C57BL/6 mice; conditions: serum 21 days after cardiac allograft; dose not stated
Description: as §1

[2] = tested on: BALB/c islet grafts in diabetic C57BL/6 recipients; assay: Islet transplantation; type: in vivo, C57BL/6 mice; conditions: 12 mg/kg oral daily
Description: Chemical diabetes was induced in C57BL/6 mice using a single intraperitoneal dose of streptozocin (150 mg/kg) as previously described in Markees, T. G., Serreze, D. V., Phillips, N. E., et al; Diabetes, 48(5): 967-974, 1999. Mice with persistent hyperglycemia of >300 mg/dl were selected for experimentation as allograft recipients. Blood for plasma glucose was monitored thrice weekly (Glucose Analyzer2; Beckman Instruments, Fullerton, Calif.). Islets of Langerhans from BALB/c donors were isolated by collagenase digestion followed by density-gradient separation, as described previously Markees, T. G., Serreze, D. V., Phillips, N. E., et al; Diabetes, 48(5): 967-974, 1999. Approximately 20 islets/g body weight were transplanted into the renal subcapsular space C57BL/6 recipients. Oral treatments were provided daily beginning one day prior to islet transplant through day 28. Rejection was defined as the first of two consecutive days on which the plasma glucose was greater than or equal to 250 mg/dl. To verify the functionality of islet grafts, the graft bearing kidney was removed and placed in 10% formalin for histological analysis. Recurrence of hyperglycemia after graft removal was interpreted as evidence that the graft was the source of insulin in treated mice.

[3] = tested on: BALB/c cardiac allograft in C57BL/6 recipients; assay: Neonatal cardiac transplantation; type: in vivo, C57BL/6 mice; conditions: for cardiac allograft survival on day 13 post transplantation: q.d. from day -1, visual observation and electrocardiogram
Source text: Neonatal cardiac transplantation was done using a modification of methods described by Judd, K. P. & Trentin, J. J; Transplantation, 11(3): 298-302, 1971 and Fey, T. A., Krause, R. A., Hsieh, G. C., et al; J. Pharmacol. Tox. Methods, 39: 9-17, 1998 which are incorporated herein in their entirety.
Hearts from one to two day old C57BL/6 (isograft) and BALB/c (allograft) pups were removed aseptically and stored in cold PBS until transplant. Adult C57BL/6 mice were used as transplant recipients. Each recipient mouse was transplanted with an isograft heart in the left ear and an allograft heart in the right ear. Mice were anesthetized with avertin (0.25 cc/mouse, i.p.) (2.0 G 2,2,2-Tribromoethanol) (Aldrich, Milwaukee, Wis.) plus 2.0 ml 2-methyl-2-butanol (tert-amyl alcohol) (Aldrich, Milwaukee, Wis.) and protective ointment was applied to eyes after anesthesia. An incision was made in each ear pinnae using a scalpel blade and straight fine forceps were used to create a subcutaneous pocket in the ear. The donor heart was placed into the pocket using a second pair of forceps. On days 5-16, mice were anesthetized with isofluorane (Henry Schein, Melville, N.Y.) /oxygen and the heartbeats were visually assessed using a dissecting microscope. On the final day electrical activity of the cardiac tissue was monitored by electrocardiogram. The ears were then removed and the transplanted tissue were evaluated histologically for evidence of inflammation and necrosis (rejection).

C57BL/6 mice = assay: Delayed type hypersensitivity (DTH), mBSA footpad challenge; type: in vivo
Description: A modification of a method described by Magram, J., Turek, C. W., Killeen, N; Immunity, 4: 471, 1996 and Magram, J., Sfarra, J., Connaughton, S., et al; Ann. NY Acad. Sci., 795: 60-70, 1996 was used. On day 0 C57BL/6 mice were immunized intradermal (i.d.) with 400 μg methylated bovine serum albumin (mBSA) (Sigma Chemical Co., St. Louis, Mo.) in a 1:1 emulsion with complete Freund's adjuvant (Difco Labs, Detroit, Mich.). […] On day 7 post immunization mice were challenged in one hind footpad with 100 μg of mBSA in 20 μl of PBS and in the opposite footpad with PBS alone. Footpad swelling was measured 24 hours after challenge using a vernier caliper.

In the case of COc1cc(-c2nn(C3CCC(N4CCN(C)CC4)CC3)c3ncnc(N)c23)ccc1NC(=O)c1cc2ccccc2n1C (centres unmarked) [Example 3], the “inhibition of anti-CD3 induced IL-2” value (anti-CD3 induced IL-2) is reported as “complete inhibition”, the “survival of skin allografts” value ([1]; 6 mg/kg p.o.) is reported as 42% and the “survival of skin allografts” value ([1]; 12 mg/kg p.o.) is reported as 90%. The “IgG1 alloantibody isotype production” value (IgG1 alloantibody) was “completely inhibited”, the “IgG2a alloantibody isotype production” value (IgG2a alloantibody) was “completely inhibited” and the “histological evaluation of islet grafts” value [2] was “minimal intra-graft inflammation”. For the same molecule, the “glycemic state of islet graft recipients” value ([2]; day -1 through day 28) was “normoglycemic”, the “maintenance of BALB/c islet cell grafts” value ([2]; day -1 through day 28) was 28 days and the “cardiac allograft survival on day 13 post transplantation” value ([3]; 6 mg/kg p.o.) was 60%. For the same molecule, the “cardiac allograft survival on day 13 post transplantation” value ([3]; 12 mg/kg p.o.) was 100%, the “Percent Survival Day 16 Post Transplant (cardiac allograft, electrocardiogram)” value ([3]; Example 3 3 mg/kg p.o., q.d.) was 10% and the “histological evaluation of transplanted allograft hearts” value ([3]; compared to vehicle treated hearts) was “decrease in peri- and intra-graft inflammation and necrosis”. The “inhibition of DTH” value (C57BL/6 mice; treatment given only on days 7 and 8 (around the antigen challenge)) was 65% and the “inhibition of footpad swelling 24 hours post challenge” value (C57BL/6 mice; treatment p.o., q.d. from day -1 to day 8) was 77%.
